Measured values taken from patent US20260159525A1, “TRICYCLIC HETEROCYCLES” (Merck Patent GmbH, priority 2021, published 2026).

Columns and labels:
Format in all cases: cell-based
NCI-H226 cells = experiment: Viability assay in NCI-H226 (Yap-dependent) cells, CyQUANT; conditions: Homo sapiens, NCI-H226 YAP dependent cell line, 96 hour incubation, group symbols
In short: (§1)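 Cells were seeded 24 h before dosing, then given a 10-point, 1:3 compound series from 30 μM final (0.3% DMSO) in duplicate. After 96 h at 37 °C, viability was read by CyQUANT DNA-dye fluorescence.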

SW620 Yap KO cells = experiment: Viability assay in SW620 Yap KO (Yap independent) cells, CyQUANT; conditions: Homo sapiens, SW-620, SW620 YAP and TAZ knocked out (YAP independent), 96 hour incubation
In short: as §1

YAP-TEAD interaction = experiment: SK-HEP-1 reporter assay (8x TEAD responsive elements driving NanoLuc luciferase); conditions: Homo sapiens, SK-HEP1, SK-HEP-1 cells, 24 hour incubation
In short: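 SK-HEP-1 cells carrying a stably integrated 8× TEAD-element NanoLuc reporter, seeded 24 h before dosing, were treated in duplicate with a 10-point dose series (top 30 μM final, 0.3% DMSO) for 24 h at 37°C, 5% CO2. Luciferase activity read by NanoGlo luminescence; IC50 derived from it.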

[1] = n.d. (x) = not detectable below threshold x
[2] = number, or n.d. (x) = not detectable below threshold x

Structure (SMILES)	IC50 (NCI-H226 cells)	IC50 (SW620 Yap KO cells; [1])	IC50 (YAP-TEAD interaction; [2])	IC50 (YAP-TEAD interaction; group symbols)	IC50 (SW620 Yap KO cells; group symbols)
C[C@@H](O)CNC(=O)c1cc2c3cn(C)nc3n(-c3ccc(C(F)(F)F)cc3)c2s1 [Compound 44, N-[(2R)-2-hydroxypropyl]-4-methyl-7-[4-(trifluoromethyl)phenyl]-9-thia-4,5,7-triazatricyclo[6.3.0.0^2,6]undeca-1(8),2,5,10-tetraene-10-carboxamide]	1 to 100 nM	> 3000 nM	> 9500 nM	–	–
Cn1cc2c3cc(C(=O)O)sc3n(-c3ccc(SC(F)(F)F)cc3)c2n1 [Compound 40, 4-methyl-7-{4-[(trifluoromethyl)sulfanyl]phenyl}-9-thia-4,5,7-triazatricyclo[6.3.0.0^2,6]undeca-1(8),2,5,10-tetraene-10-carboxylic acid]	1 to 100 nM	> 30000 nM	–	10 to 100 nM	–
Cn1nc2c3sc(C(=O)O)cc3n(-c3ccc(OC(F)(F)F)cc3)c2n1 [Compound 27, 4-methyl-7-[4-(trifluoromethoxy)phenyl]-11-thia-3,4,5,7-tetraazatricyclo[6.3.0.0^2,6]undeca-1(8),2,5,9-tetraene-10-carboxylic acid]	100 to 1000 nM	> 30000 nM	–	10 to 100 nM	–
CNC(=O)c1cc2c3cn(C)nc3n(-c3ccc(C(F)(F)F)cn3)c2s1 [Compound 47, N,4-dimethyl-7-[5-(trifluoromethyl)pyridin-2-yl]-9-thia-4,5,7-triazatricyclo[6.3.0.0^2,6]undeca-1(8),2,5,10-tetraene-10-carboxamide]	1 to 100 nM	–	–	10 to 100 nM	1000 to 10000 nM
Cn1cc2c3cc(C(=O)N[C@H](CCO)c4cncs4)sc3n(-c3ccc(C(F)(F)F)cc3)c2n1 (single isomer, unassigned) [Compound 42]	1000 to 10000 nM	–	> 9500 nM	–	1000 to 10000 nM
Cn1cc2c3sc(C(=O)O)cc3n(C[C@H]3C[C@H](C(F)(F)F)C3)c2n1 [Compound 37, 10-methyl-7-{[(1r,3r)-3-(trifluoromethyl)cyclobutyl]methyl}-3-thia-7,9,10-triazatricyclo[6.3.0.0^2,6]undeca-1(11),2(6),4,8-tetraene-4-carboxylic acid]	1000 to 10000 nM	> 30000 nM	–	100 to 10000 nM	–
C[C@H](CO)NC(=O)c1cc2c3cn(C)nc3n(-c3ccc(C(F)(F)F)cn3)c2s1 [Compound 48, N-[(2R)-1-hydroxypropan-2-yl]-4-methyl-7-[5-(trifluoromethyl)pyridin-2-yl]-9-thia-4,5,7-triazatricyclo[6.3.0.0^2,6]undeca-1(8),2,5,10-tetraene-10-carboxamide]	1 to 100 nM	–	> 30000 nM	–	10000 to 30000 nM
Cn1cc2c3sc(C(=O)O)cc3n(-c3ccc(OC(F)F)cc3)c2n1 [Compound 10, 7-[4-(difluoromethoxy)phenyl]-10-methyl-3-thia-7,9,10-triazatricyclo[6.3.0.0^2,6]undeca-1(11),2(6),4,8-tetraene-4-carboxylic acid]	100 to 1000 nM	> 30000 nM	–	10 to 100 nM	–
Cn1cc2c3cc(C(=O)NCc4cccnc4)sc3n(-c3ccc(C(F)(F)F)cc3)c2n1 [Compound 45, 4-methyl-N-[(pyridin-3-yl)methyl]-7-[4-(trifluoromethyl)phenyl]-9-thia-4,5,7-triazatricyclo[6.3.0.0^2,6]undeca-1(8),2,5,10-tetraene-10-carboxamide]	1 to 100 nM	–	> 9500 nM	–	1000 to 10000 nM
CNC(=O)c1cc2c(s1)c1c(ncn1C)n2-c1ccc(C(F)(F)F)cc1 [Compound 21, N,3-dimethyl-7-[4-(trifluoromethyl)phenyl]-11-thia-3,5,7-triazatricyclo[6.3.0.0^2,6]undeca-1(8),2(6),4,9-tetraene-10-carboxamide]	100 to 1000 nM	–	–	100 to 10000 nM	1000 to 10000 nM
Cn1cnc2c1c1sc(C(=O)O)cc1n2-c1ccc(C(F)(F)F)cc1 [Compound 20, 3-methyl-7-[4-(trifluoromethyl)phenyl]-11-thia-3,5,7-triazatricyclo[6.3.0.0^2,6]undeca-1(8),2(6),4,9-tetraene-10-carboxylic acid]	100 to 1000 nM	> 30000 nM	–	10 to 100 nM	–

Results, then the compound that gave them:

IC50 (NCI-H226 cells)	IC50 (SW620 Yap KO cells; [1])	IC50 (YAP-TEAD interaction; [2])	IC50 (YAP-TEAD interaction; group symbols)	IC50 (SW620 Yap KO cells; group symbols)	Structure (SMILES)
100 to 1000 nM	> 30000 nM	> 30000 nM	–	–	CNC(=O)c1cc2c3cn(C)nc3n(-c3ccc(C(F)F)cn3)c2s1 [Compound 119, 7-[5-(difluoromethyl)pyridin-2-yl]-N,4-dimethyl-9-thia-4,5,7-triazatricyclo[6.3.0.0^2,6]undeca-1(8),2,5,10-tetraene-10-carboxamide]
1 to 100 nM	> 3000 nM	> 9500 nM	–	–	COCCC(CO)NC(=O)c1cc2c3cn(C)nc3n(-c3ccc(C(F)(F)F)cc3)c2s1 (racemic) [Compound 63, N-(1-hydroxy-4-methoxybutan-2-yl)-4-methyl-7-[4-(trifluoromethyl)phenyl]-9-thia-4,5,7-triazatricyclo[6.3.0.0^2,6]undeca-1(8),2,5,10-tetraene-10-carboxamide]
1 to 100 nM	> 3000 nM	> 9500 nM	–	–	Cn1cc2c3cc(C(=O)NCc4ccccn4)sc3n(-c3ccc(C(F)(F)F)cc3)c2n1 [Compound 66, 4-methyl-N-[(pyridin-2-yl)methyl]-7-[4-(trifluoromethyl)phenyl]-9-thia-4,5,7-triazatricyclo[6.3.0.0^2,6]undeca-1(8),2,5,10-tetraene-10-carboxamide]
1 to 100 nM	> 30000 nM	–	10 to 100 nM	–	Cn1cc2c3cc(C(=O)O)sc3n([C@H]3CC[C@H](C(F)(F)F)CC3)c2n1 [Compound 52, 4-methyl-7-[(1r,4r)-4-(trifluoromethyl)cyclohexyl]-9-thia-4,5,7-triazatricyclo[6.3.0.0^2,6]undeca-1(8),2,5,10-tetraene-10-carboxylic acid]
100 to 1000 nM	> 30000 nM	> 30000 nM	–	–	Cn1cc2c3cc(-c4noc(=O)[nH]4)sc3n(-c3ccc(C(F)(F)F)cc3)c2n1 [Compound 80, 3-{4-methyl-7-[4-(trifluoromethyl)phenyl]-9-thia-4,5,7-triazatricyclo[6.3.0.0^2,6]undeca-1(8),2,5,10-tetraen-10-yl}-4,5-dihydro-1,2,4-oxadiazol-5-one]
100 to 1000 nM	> 30000 nM	–	10 to 100 nM	–	Cn1cc2c3cc(C(=O)N4CC[C@H](O)C4)sc3n(-c3ccc(C(F)F)cc3)c2n1 [Compound 105, (3S)-1-{7-[4-(difluoromethyl)phenyl]-4-methyl-9-thia-4,5,7-triazatricyclo[6.3.0.0^2,6]undeca-1(8),2,5,10-tetraene-10-carbonyl}pyrrolidin-3-ol]
1 to 100 nM	> 30000 nM	–	10 to 100 nM	–	CNC(=O)c1cc2c3nn(C)nc3n(-c3ccc(C(F)(F)F)cc3)c2s1 [Compound 102, N,4-dimethyl-7-[4-(trifluoromethyl)phenyl]-9-thia-3,4,5,7-tetraazatricyclo[6.3.0.0^2,6]undeca-1(8),2,5,10-tetraene-10-carboxamide]
1 to 100 nM	> 3000 nM	> 950 nM	–	–	Cn1cc2c3cc(C(=O)NCCO)sc3n(-c3ccc(C(F)(F)F)cc3)c2n1 [Compound 64, N-(2-hydroxyethyl)-4-methyl-7-[4-(trifluoromethyl)phenyl]-9-thia-4,5,7-triazatricyclo[6.3.0.0^2,6]undeca-1(8),2,5,10-tetraene-10-carboxamide]
1 to 100 nM	> 30000 nM	–	10 to 100 nM	–	Cn1ccc(C(CO)NC(=O)c2cc3c4cn(C)nc4n(-c4ccc(C(F)(F)F)cc4)c3s2)n1 (stereo not drawn) [Compound 96, N-[2-hydroxy-1-(1-methyl-1H-pyrazol-3-yl)ethyl]-4-methyl-7-[4-(trifluoromethyl)phenyl]-9-thia-4,5,7-triazatricyclo[6.3.0.0^2,6]undeca-1(8),2,5,10-tetraene-10-carboxamide]
